Source: patent publication US5136093A, “Quaternized panthenol compounds and their use” (priority 1991, dated 1992)
Entries after “also recorded” stand apart in the source; their conditions may differ.

What was measured:
[1] = aqueous solutions; hydrolysis increases as pH varies from optimum; cited from earlier work
[2] = Rubine dye uptake (substantivity) on human hair swatches/tresses; conditions: for Rubine dye uptake / uptake with respect to the positive control: 50% aqueous solution (panthenol) or 50% solids aqueous solution; for Rubine dye uptake: Demeo Natural White Hair, read at 520 nm; for uptake with respect to the positive control: relative to positive control; for greater uptake than the unquaternized panthenol: human hair swatches
Description: In the following Examples, the qualitative test for measuring the substantivity of the compounds on hair was the Rubine Dye Test using Pyrazol Fast Bordeaux, as described in U.S. Pat. No. 3,769,398 to Hewitt and Crawford et al. J. Soc. Cosmet. Chem. 31, 273-278 (1980), the entire disclosures of which are incorporated herein by reference. The intensity of the residual pink color, after rinsing, on a hair swatch previously treated with the compound, is an indication of the degree of deposition of the compound onto the hair. Absence of pink color points to a lack of substantivity.
In a one liter reaction flask, fitted with a stirrer, thermometer reflux condenser, heating mantle and a feed funnel, 205 grams of deionized water was charged. 205 grams (1 mole) of d,l-panthenol was charged in the water and stirred until dissolved. In a separate, stirred, one liter vessel, 376 grams (1 mole) of 50% aqueous QUAB 188 (3-Chloro-2-hydroxypropyl trimethylammonium chloride) was reacted with approximately 80 grams (1 mole) of 50% aqueous sodium hydroxide solution, to form a solution of QUAB 151 (2, 3-Epoxypropyl trimethyl ammonium chloride), to a pH of ^~ 9.5. The batch was heated to 50°-60° C., and the QUAB 151 solution was added to the panthenol solution through the feed funnel. The pH of the reaction mixture was checked, and adjusted to ^~ 9.5 with a small additional amount of 50% sodium hydroxide solution, as required. The batch was then agitated at 50°-60° C. for a four hour period to assure complete reaction. The pH of the batch was then adjusted to 6.5-8.0 with a small amount of lactic acid. The resultant product was a clear yellow solution, containing approximately 50% of trimethyl quaternized panthenol.
In a two liter reaction flask, fitted with a stirrer, thermometer, reflux condenser, heating mantle and a feed funnel, 205 grams of deionized water was charged. 205 grams (1 mole) of d,l- panthenol was charged into the water and stirred until dissolved. In a separate stirred one liter vessel, 852 grams (1 mole) of 50% aqueous QUAB 426 (3-Chloro-2-hydroxypropyl stearyl dimethylammonium chloride) was reacted with approximately 80 grams (1 mole) of 50% aqueous sodium hydroxide solution, to form a solution of QUAB 393 (2,3-Epoxypropyl stearyl dimethyl ammonium chloride), to a pH of ^~ 9.5. The batch was heated to 50°-60° C., and the QUAB 393 solution was added to the panthenol solution through the feed funnel. The pH of the reaction mixture was checked, and adjusted to ^~ 9.5 with a small additional amount of 50% sodium hydroxide solution, as required. The batch was then agitated at 50°-60° C. for a four hour period to assure complete reaction. The pH of the batch was then adjusted to 6.5-8.0 with a small amount of lactic acid. The resultant product was a clear yellow solution, containing approximately 50% solids, of which approximately 43% was stearyl dimethyl quaternized panthenol.
Rubine Dye uptake as a measure of substantivity.
Four tresses of Demeo Natural White Hair weighing approximately 0.5 grams each were immersed in 15 grams of the appropriate solution (i.e. positive control, negative control and test samples) for a period of not less than 5 minutes. Each tress was then rinsed five times with 100 ml of water at 120° F.
The tresses were then immersed in a solution of fast Rubine dye for 15 minutes, rinsed five times with 100 ml of water at 105° F., then air dried overnight on filter paper. Each tress was weighed directly into a tared beaker. The dye was stripped from the hair and the solution then brought to the volume with deionized water. The transmission of each sample was then read at 520 nm and its absorbance adjusted to the weight of the hair sample. The dye concentration was calculated from a standard calibration curve.

[3] = Compatibility with formulation ingredients; assay type: physicochemical; conditions: in finished cosmetic formulation
Procedure: Procedure: The water was weighed into a beaker. Each Phase A ingredient was then added to the water phase in the order listed and mixed thoroughly after the addition of each ingredient. The fragrance was dissolved in the alcohol and Phase B was added to Phase A and mixed until clear and uniform.
Procedure: Phase A was heated to 55° C. Phase B was added and mixed until uniform. Phase C ingredients were added in the order listed and mixed until uniform. When the batch cooled to 45° C., Phase E and Phase F were added and the batch was mixed until uniform. The pH was adjusted with Citric Acid. Phase H was added and the batch was mixed until uniform.
Procedure: The Siltech C-2145CG emulsion was predispersed in the Phase A water in a beaker. The Phase "B" ingredients were dissolved one at a time into the remainder of the water and mixed until clear. Phase "C" ingredients were mixed until clear and uniform. Phase "A" was added to Phase "B" with agitation. Then Phase "C" and "D" were added and the batch was mixed until uniform.
Procedure: Phase A was weighed into a beaker and was then mixed until clear and uniform. Phase B and then Phase C were added to Phase A while mixing. The batch was mixed until clear and uniform.
Procedure: Ucare Polymer JR was dispersed in the water. After the polymer was dispersed, the Methylparaben was added. Phase A was then heated to 60° C. […]

Row | Compound | optimum pH for stability [1] | Rubine dye uptake [2] | uptake with respect to the positive control [2] [%] | other results
1 | CC(C)(CO)C(O)C(=O)NCCCO (racemic) [d,l-Panthenol] | approximately 6 |  |  | 
2 | CCCCCCCCCCCCCCCCCC[N+](C)(C)CC(O)COCC(C)(C)C(O)C(=O)NCCCO (racemic) [stearyl dimethyl quaternized panthenol] |  | 66.30 mg of dye/50 gm of hair | 46.74 | greater uptake than the unquaternized panthenol, adjusted for concentration of active material ([2]; 50% solids aqueous solution vs panthenol 50% aqueous solution, adjusted for concentration of active material): ~31%; greater uptake than the unquaternized panthenol ([2]; versus a 50% panthenol solution, not adjusted for active material): ~27%; compatibility with other ingredients [3]: compatible with the anionic surfactants that make up the shampoo; also recorded: compatible with the cationic silicone emulsion (Siltech E-2145CG) and with the hair fixative polymer; also recorded: compatible with the hair fixative polymer and with the ethanol; also recorded: compatible with the other cationic ingredients in the formula; also recorded: compatible with all of the nonionic ingredients in the formula; also recorded: compatible with the anionic soaps and surfactants in the Neutrogena™ soap bar
3 | CC(C)(COCC(O)C[N+](C)(C)C)C(O)C(=O)NCCCO (racemic) [trimethyl quaternized panthenol] |  |  |  | greater uptake than the unquaternized panthenol ([2]; versus panthenol solution of comparable concentration): ~7%
4 | CC(C)(CO)C(O)C(=O)NCCCO (stereo not shown) [Panthenol] |  | 52.35 mg of dye/50 gm of hair | 36.91 | 
5 | CC(C)(CO)[C@@H](O)C(=O)NCCCO [d-Panthenol] | approximately 6 |  |  | 
